Measured values: ChEMBL document CHEMBL4507264, “Data for DCP probe BAY-7598” (2021)

How the values were obtained:
[1] = biological target: Mitogen-activated protein kinase kinase kinase 4 (Homo sapiens) (UniProt Q9Y6R4); conditions: Compound concentration 1000.0 nM
[2] = biological target: Activin receptor type-1 (Homo sapiens) (UniProt Q04771); conditions: Compound concentration 1000.0 nM
[3] = biological target: Casein kinase II subunit alpha (Homo sapiens) (UniProt P68400); conditions: Compound concentration 1000.0 nM
Chain of Casein kinase II subunit alpha (Homo sapiens) (P68400 whole entry, looked up): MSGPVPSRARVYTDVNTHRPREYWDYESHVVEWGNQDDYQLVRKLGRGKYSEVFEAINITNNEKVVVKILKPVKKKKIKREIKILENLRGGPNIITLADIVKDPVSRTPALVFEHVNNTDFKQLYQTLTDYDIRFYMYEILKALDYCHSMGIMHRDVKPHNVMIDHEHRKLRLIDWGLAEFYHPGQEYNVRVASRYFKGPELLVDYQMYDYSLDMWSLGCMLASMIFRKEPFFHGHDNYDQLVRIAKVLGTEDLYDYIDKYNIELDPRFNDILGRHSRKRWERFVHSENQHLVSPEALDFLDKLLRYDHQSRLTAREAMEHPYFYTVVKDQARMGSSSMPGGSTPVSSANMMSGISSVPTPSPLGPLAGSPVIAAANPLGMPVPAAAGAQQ

[4] = system: Tyrosine-protein kinase ABL1 (Homo sapiens), P00519 [H396P]; conditions: Compound concentration 1000.0 nM
[5] = biological target: Death-associated protein kinase 3 (Homo sapiens) (UniProt O43293); conditions: Compound concentration 1000.0 nM
Chain of Death-associated protein kinase 3 (Homo sapiens) (O43293 whole entry, looked up): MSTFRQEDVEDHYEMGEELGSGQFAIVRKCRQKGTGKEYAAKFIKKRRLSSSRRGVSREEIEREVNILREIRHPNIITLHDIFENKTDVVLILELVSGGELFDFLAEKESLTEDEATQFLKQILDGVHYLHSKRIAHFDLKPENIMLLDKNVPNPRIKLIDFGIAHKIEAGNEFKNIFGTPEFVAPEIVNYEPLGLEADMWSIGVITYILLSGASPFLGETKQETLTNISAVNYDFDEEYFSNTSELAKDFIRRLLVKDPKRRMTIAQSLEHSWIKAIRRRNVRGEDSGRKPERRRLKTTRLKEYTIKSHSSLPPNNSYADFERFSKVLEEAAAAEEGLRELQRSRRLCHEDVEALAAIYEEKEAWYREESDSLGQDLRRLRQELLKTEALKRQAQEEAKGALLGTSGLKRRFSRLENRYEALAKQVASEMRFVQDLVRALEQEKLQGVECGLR

[6] = biological target: Maternal embryonic leucine zipper kinase (Homo sapiens) (UniProt Q14680); conditions: Compound concentration 1000.0 nM
[7] = biological target: Interleukin-1 receptor-associated kinase 3 (Homo sapiens) (UniProt Q9Y616); conditions: Compound concentration 1000.0 nM
[8] = biological target: Myosin light chain kinase family member 4 (Homo sapiens) (UniProt Q86YV6); conditions: Compound concentration 1000.0 nM
[9] = biological target: Serine/threonine-protein kinase 4 (Homo sapiens) (UniProt Q13043); conditions: Compound concentration 1000.0 nM
[10] = biological target: Serine/threonine-protein kinase 16 (Homo sapiens) (UniProt O75716); conditions: Compound concentration 1000.0 nM
Chain of Serine/threonine-protein kinase 16 (Homo sapiens) (O75716 whole entry): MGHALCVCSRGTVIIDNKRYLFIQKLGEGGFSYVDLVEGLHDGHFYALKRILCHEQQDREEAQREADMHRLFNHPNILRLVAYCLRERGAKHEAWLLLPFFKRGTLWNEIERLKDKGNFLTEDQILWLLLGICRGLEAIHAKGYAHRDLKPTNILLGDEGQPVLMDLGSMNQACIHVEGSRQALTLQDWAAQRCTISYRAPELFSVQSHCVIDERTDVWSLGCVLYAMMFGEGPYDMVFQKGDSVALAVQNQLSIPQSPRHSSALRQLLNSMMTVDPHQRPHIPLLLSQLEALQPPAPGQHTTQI

[11] = biological target: Tyrosine-protein kinase ABL1 (Homo sapiens) (UniProt P00519); conditions: Compound concentration 1000.0 nM
[12] = biological target: Alpha-2B adrenergic receptor (Homo sapiens) (UniProt P18089); conditions: Compound concentration 10.0 uM
[13] = biological target: Microtubule-associated serine/threonine-protein kinase 1 (Homo sapiens) (UniProt Q9Y2H9); conditions: Compound concentration 1000.0 nM
[14] = biological target: Casein kinase I isoform delta (Homo sapiens) (UniProt P48730); conditions: Compound concentration 1000.0 nM
[15] = biological target: Serine/threonine-protein kinase TAO3 (Homo sapiens) (UniProt Q9H2K8); conditions: Compound concentration 1000.0 nM
Chain of Serine/threonine-protein kinase TAO3 (Homo sapiens) (Q9H2K8 whole entry): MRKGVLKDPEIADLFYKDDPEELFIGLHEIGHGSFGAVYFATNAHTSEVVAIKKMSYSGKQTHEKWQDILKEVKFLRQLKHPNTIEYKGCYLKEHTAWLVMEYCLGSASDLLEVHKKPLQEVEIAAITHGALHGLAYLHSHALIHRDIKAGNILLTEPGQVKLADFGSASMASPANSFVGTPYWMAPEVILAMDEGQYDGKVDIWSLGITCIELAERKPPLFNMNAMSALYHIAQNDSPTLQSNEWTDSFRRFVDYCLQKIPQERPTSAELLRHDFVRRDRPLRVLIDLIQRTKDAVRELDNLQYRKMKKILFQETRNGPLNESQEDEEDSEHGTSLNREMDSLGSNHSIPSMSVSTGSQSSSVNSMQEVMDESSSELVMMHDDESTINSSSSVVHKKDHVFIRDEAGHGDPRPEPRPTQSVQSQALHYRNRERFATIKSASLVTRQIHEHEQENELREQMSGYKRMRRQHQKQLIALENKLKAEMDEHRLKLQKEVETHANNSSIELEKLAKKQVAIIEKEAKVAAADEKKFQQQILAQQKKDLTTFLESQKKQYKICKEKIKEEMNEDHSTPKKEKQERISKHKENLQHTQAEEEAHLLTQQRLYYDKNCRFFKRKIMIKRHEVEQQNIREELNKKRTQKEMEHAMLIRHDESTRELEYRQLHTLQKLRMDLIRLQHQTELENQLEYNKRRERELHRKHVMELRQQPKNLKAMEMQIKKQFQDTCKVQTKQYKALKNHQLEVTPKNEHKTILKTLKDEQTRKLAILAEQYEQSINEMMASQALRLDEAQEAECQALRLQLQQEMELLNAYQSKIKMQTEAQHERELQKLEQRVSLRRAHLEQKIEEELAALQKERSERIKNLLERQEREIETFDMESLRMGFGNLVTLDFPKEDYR

[16] = biological target: Interleukin-1 receptor-associated kinase 4 (Homo sapiens) (UniProt Q9NWZ3); conditions: Compound concentration 1000.0 nM
Chain of Interleukin-1 receptor-associated kinase 4 (Homo sapiens) (Q9NWZ3 whole entry): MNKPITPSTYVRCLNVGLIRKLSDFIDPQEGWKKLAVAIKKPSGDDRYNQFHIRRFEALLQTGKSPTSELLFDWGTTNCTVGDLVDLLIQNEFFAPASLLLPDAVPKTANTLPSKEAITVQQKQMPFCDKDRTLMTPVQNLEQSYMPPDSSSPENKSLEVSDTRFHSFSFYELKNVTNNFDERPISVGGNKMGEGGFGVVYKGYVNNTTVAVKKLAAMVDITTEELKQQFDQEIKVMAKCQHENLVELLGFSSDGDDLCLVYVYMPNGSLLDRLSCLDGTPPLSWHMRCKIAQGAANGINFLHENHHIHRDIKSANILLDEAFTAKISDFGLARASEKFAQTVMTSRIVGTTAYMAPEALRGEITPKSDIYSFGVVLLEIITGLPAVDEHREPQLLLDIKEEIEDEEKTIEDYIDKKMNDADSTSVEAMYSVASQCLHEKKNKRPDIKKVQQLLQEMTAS

[17] = biological target: Death-associated protein kinase 2 (Homo sapiens) (UniProt Q9UIK4); conditions: Compound concentration 1000.0 nM
[18] = biological target: STE20/SPS1-related proline-alanine-rich protein kinase (Homo sapiens) (UniProt Q9UEW8); conditions: Compound concentration 1000.0 nM
[19] = biological target: Serine/threonine-protein kinase RIO3 (Homo sapiens) (UniProt O14730); conditions: Compound concentration 1000.0 nM
[20] = biological target: Tyrosine-protein kinase ABL1 (Homo sapiens) (UniProt P00519); conditions: Compound concentration 1000.0 nM; remark: listed apart in the source
[21] = biological target: Atypical kinase COQ8B, mitochondrial (Homo sapiens) (UniProt Q96D53); conditions: Compound concentration 1000.0 nM
Chain of Atypical kinase COQ8B, mitochondrial (Homo sapiens) (Q96D53 whole entry): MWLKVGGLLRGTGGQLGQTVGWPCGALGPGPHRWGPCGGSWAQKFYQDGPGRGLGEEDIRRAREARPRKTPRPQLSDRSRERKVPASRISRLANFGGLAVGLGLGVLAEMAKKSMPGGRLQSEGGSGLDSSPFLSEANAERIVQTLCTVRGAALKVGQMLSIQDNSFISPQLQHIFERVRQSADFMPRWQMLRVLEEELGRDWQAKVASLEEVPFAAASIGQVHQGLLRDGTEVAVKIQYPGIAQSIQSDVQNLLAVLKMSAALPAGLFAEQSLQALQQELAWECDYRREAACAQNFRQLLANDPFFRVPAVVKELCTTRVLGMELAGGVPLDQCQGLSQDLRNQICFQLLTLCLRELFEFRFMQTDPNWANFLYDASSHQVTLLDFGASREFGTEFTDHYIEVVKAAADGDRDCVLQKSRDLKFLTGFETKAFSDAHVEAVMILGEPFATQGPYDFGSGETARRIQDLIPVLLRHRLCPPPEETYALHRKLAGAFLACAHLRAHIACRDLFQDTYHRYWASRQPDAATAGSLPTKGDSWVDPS

[22] = biological target: Phosphatidylinositol 3-kinase catalytic subunit type 3 (Homo sapiens) (UniProt Q8NEB9); conditions: Compound concentration 1000.0 nM
[23] = biological target: Phosphatidylinositol 5-phosphate 4-kinase type-2 gamma (Homo sapiens) (UniProt Q8TBX8); conditions: Compound concentration 1000.0 nM
Chain of Phosphatidylinositol 5-phosphate 4-kinase type-2 gamma (Homo sapiens) (Q8TBX8 whole entry): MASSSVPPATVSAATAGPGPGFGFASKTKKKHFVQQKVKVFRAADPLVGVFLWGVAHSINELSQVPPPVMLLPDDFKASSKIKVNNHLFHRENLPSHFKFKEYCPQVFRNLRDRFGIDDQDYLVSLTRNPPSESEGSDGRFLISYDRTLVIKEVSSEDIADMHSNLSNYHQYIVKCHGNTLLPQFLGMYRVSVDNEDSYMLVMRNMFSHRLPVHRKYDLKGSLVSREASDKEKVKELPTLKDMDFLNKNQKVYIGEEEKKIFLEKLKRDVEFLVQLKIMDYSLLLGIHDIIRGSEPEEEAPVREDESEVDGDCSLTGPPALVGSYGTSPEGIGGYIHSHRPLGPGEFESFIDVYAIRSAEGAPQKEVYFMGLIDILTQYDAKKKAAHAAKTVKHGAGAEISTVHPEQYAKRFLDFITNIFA

[24] = biological target: Inhibitor of nuclear factor kappa-B kinase subunit alpha (Homo sapiens) (UniProt O15111); conditions: Compound concentration 1000.0 nM
[25] = biological target: Rhodopsin kinase GRK7 (Homo sapiens) (UniProt Q8WTQ7); conditions: Compound concentration 1000.0 nM
[26] = biological target: Serine/threonine-protein kinase Nek4 (Homo sapiens) (UniProt P51957); conditions: Compound concentration 1000.0 nM
[27] = biological target: Phosphatidylinositol 4,5-bisphosphate 3-kinase catalytic subunit delta isoform (Homo sapiens) (UniProt O00329); conditions: Compound concentration 1000.0 nM
[28] = biological target: Receptor-type tyrosine-protein kinase FLT3 (Homo sapiens) (UniProt P36888); conditions: Compound concentration 1000.0 nM
[29] = biological target: Beta-2 adrenergic receptor (Homo sapiens) (UniProt P07550); conditions: Compound concentration 10.0 uM
[30] = system: Epidermal growth factor receptor (Homo sapiens), P00533 [G719C]; conditions: Compound concentration 1000.0 nM
[31] = system: Mast/stem cell growth factor receptor Kit (Homo sapiens), P10721 [D816H]; conditions: Compound concentration 1000.0 nM
[32] = biological target: MAP/microtubule affinity-regulating kinase 4 (Homo sapiens) (UniProt Q96L34); conditions: Compound concentration 1000.0 nM
[33] = biological target: TRAF2 and NCK-interacting protein kinase (Homo sapiens) (UniProt Q9UKE5); conditions: Compound concentration 1000.0 nM
[34] = biological target: Serine/threonine-protein kinase Nek11 (Homo sapiens) (UniProt Q8NG66); conditions: Compound concentration 1000.0 nM
[35] = system: Tyrosine-protein kinase ABL1 (Homo sapiens), P00519 [Q252H]; conditions: Compound concentration 1000.0 nM
[36] = biological target: Insulin receptor (Homo sapiens) (UniProt P06213); conditions: Compound concentration 1000.0 nM
[37] = biological target: Platelet-derived growth factor receptor alpha (Homo sapiens) (UniProt P16234); conditions: Compound concentration 1000.0 nM
[38] = biological target: BDNF/NT-3 growth factors receptor (Homo sapiens) (UniProt Q16620); conditions: Compound concentration 1000.0 nM
[39] = biological target: Serine/threonine-protein kinase 38 (Homo sapiens) (UniProt Q15208); conditions: Compound concentration 1000.0 nM
[40] = species: Rattus norvegicus; conditions: Compound concentration 10.0 uM
[41] = biological target: Homeodomain-interacting protein kinase 3 (Homo sapiens) (UniProt Q9H422); conditions: Compound concentration 1000.0 nM
[42] = biological target: Serine/threonine-protein kinase TAO2 (Homo sapiens) (UniProt Q9UL54); conditions: Compound concentration 1000.0 nM
[43] = biological target: Serine/threonine-protein kinase TBK1 (Homo sapiens) (UniProt Q9UHD2); conditions: Compound concentration 1000.0 nM
Chain of Serine/threonine-protein kinase TBK1 (Homo sapiens) (Q9UHD2 whole entry): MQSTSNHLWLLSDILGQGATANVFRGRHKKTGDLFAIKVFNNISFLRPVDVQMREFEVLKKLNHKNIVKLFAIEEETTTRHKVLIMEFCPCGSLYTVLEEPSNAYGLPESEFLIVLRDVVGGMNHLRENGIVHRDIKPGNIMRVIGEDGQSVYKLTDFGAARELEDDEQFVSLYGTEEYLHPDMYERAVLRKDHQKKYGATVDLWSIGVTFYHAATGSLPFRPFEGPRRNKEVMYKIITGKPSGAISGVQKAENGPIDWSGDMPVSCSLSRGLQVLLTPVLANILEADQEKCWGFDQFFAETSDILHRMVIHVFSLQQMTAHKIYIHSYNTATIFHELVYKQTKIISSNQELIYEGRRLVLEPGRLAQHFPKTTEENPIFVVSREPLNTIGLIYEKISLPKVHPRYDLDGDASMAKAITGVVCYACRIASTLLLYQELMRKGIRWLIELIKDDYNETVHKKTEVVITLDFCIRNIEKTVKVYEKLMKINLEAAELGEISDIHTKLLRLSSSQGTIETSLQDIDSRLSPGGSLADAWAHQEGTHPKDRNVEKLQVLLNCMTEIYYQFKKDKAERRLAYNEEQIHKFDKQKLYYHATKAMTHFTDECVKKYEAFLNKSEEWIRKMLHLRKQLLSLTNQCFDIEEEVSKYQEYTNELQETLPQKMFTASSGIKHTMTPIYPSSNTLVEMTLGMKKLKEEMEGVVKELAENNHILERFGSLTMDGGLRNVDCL

[44] = biological target: Mitogen-activated protein kinase kinase kinase kinase 3 (Homo sapiens) (UniProt Q8IVH8); conditions: Compound concentration 1000.0 nM
[45] = biological target: Serine/threonine-protein kinase Sgk2 (Homo sapiens) (UniProt Q9HBY8); conditions: Compound concentration 1000.0 nM
[46] = biological target: Epidermal growth factor receptor (Homo sapiens) (UniProt P00533); conditions: Compound concentration 1000.0 nM

Chain of Activin receptor type-1 (Homo sapiens) (Q04771 whole entry): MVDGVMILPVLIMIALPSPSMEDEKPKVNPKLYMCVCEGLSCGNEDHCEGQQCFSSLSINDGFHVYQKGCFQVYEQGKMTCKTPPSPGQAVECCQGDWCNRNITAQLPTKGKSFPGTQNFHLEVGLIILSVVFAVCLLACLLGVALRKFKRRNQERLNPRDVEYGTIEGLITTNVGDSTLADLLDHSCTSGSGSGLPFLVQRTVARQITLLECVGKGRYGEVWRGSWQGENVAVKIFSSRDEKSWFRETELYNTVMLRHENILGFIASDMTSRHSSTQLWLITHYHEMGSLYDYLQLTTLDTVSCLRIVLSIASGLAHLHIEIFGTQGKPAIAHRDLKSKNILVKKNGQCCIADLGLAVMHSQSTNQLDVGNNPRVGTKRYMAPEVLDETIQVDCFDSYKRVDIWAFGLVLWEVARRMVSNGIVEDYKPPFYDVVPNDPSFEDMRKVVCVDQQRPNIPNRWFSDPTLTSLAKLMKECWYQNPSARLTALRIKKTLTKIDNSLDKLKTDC

O=C(O)[C@@H]1[C@@H](Cn2nnc3ccccc3c2=O)CC[C@H]1C(=O)c1ccc(OCCC2CCOCC2)cc1 [BAY-694]
inactive: residual activity [1] 91% | residual activity [2] 100% | residual activity [3] 87% | residual activity [4] 84% | residual activity [5] 100% | residual activity [6] 85% | residual activity [7] 100% | residual activity [8] 100% | residual activity [9] 98% | residual activity [10] 89% | residual activity [11] 95% | inhibition [12] 8.62% | residual activity [13] 100% | residual activity [14] 100% | residual activity [15] 100% | residual activity [16] 76% | residual activity [17] 100% | residual activity [18] 96% | residual activity [19] 100% | residual activity [20] 79% | residual activity [21] 64% | residual activity [22] 96% | residual activity [23] 89% | residual activity [24] 100% | residual activity [25] 100% | residual activity [26] 56% | residual activity [27] 99% | residual activity [28] 86% | inhibition [29] 24.4% | residual activity [30] 90% | residual activity [31] 68% | residual activity [32] 100% | residual activity [33] 93% | residual activity [34] 100% | residual activity [35] 92% | residual activity [36] 85% | residual activity [37] 100% | residual activity [38] 93% | residual activity [39] 95% | inhibition [40] 13.4% | residual activity [41] 100% | residual activity [42] 76% | residual activity [43] 100% | residual activity [44] 100% | residual activity [45] 79% | residual activity [46] 90%

O=C(O)[C@H]1[C@H](Cn2nnc3ccccc3c2=O)CC[C@@H]1C(=O)c1ccc(OCCC2CCOCC2)cc1 [BAY-7598]
inactive: residual activity [1] 100% | residual activity [2] 100% | residual activity [3] 100% | residual activity [4] 100% | residual activity [5] 99% | residual activity [6] 96% | residual activity [7] 77% | residual activity [8] 100% | residual activity [9] 98% | residual activity [10] 85% | residual activity [11] 80% | inhibition [12] 3.34% | residual activity [13] 98% | residual activity [14] 100% | residual activity [15] 100% | residual activity [16] 76% | residual activity [17] 100% | residual activity [18] 95% | residual activity [19] 79% | residual activity [20] 89% | residual activity [21] 87% | residual activity [22] 93% | residual activity [23] 100% | residual activity [24] 100% | residual activity [25] 100% | residual activity [26] 84% | residual activity [27] 89% | residual activity [28] 96% | inhibition [29] 8.44% | residual activity [30] 81% | residual activity [31] 80% | residual activity [32] 96% | residual activity [33] 84% | residual activity [34] 100% | residual activity [35] 83% | residual activity [36] 78% | residual activity [37] 100% | residual activity [38] 75% | residual activity [39] 88% | inhibition [40] 9.67% | residual activity [41] 99% | residual activity [42] 100% | residual activity [43] 94% | residual activity [44] 100% | residual activity [45] 92% | residual activity [46] 88%
